≈ marks a conversion by molar mass, not a printed value. Where two headings read alike, the source gives them in different places.
What was measured:
Electrometric titration = assay type: physicochemical; settings: 80% aqueous methyl cellosolve, 80 percent aqueous methyl cellosolve
Source text: Electrometric titration (80 percent aqueous methyl cellosolve) pKa 3.9.
Electrometric titration in 80 percent aqueous methyl cellosolve pKa 4.15.
Electrometric titration in 80 percent aqueous methyl cellosolve pKa 4.75.
Electrometric titration (80 percent aqueous methyl cellosolve) pKa 4.4.
Electrometric titration (80 percent aqueous methyl cellosolve) pKa 4.25.

Escherichia coli = assay: Standard Gradient-Plate method, MIC vs. Escherichia coli; assay type: cell-based; settings: in vitro, read-out: Minimum Inhibitory Concentration
Source text: (§1) The 7-acylamido-3-cephem-3-sulfonate esters of the formula I wherein R1 is hydrogen (the free acid form) are useful antibiotic substances which are useful in combatting infections attributable to gram-positive and gram-negative bacteria and also penicillin resistant staphylococci. The antibacterial activity of these sulfonate esters is illustrated by the following in vitro test data obtained with representative compounds. In Table I below, the minimum inhibitory concentration (MIC) for representative compounds against gram-negative bacteria is presented. The data were obtained by the standard Gradient-Plate method.

Klebsiella pneumoniae = assay: Standard Gradient-Plate method, MIC vs. Klebsiella pneumoniae; assay type: cell-based; settings: in vitro, read-out: Minimum Inhibitory Concentration
Source text: as §1

Aerobacter aerogenes = assay: Standard Gradient-Plate method, MIC vs. Aerobacter aerogenes; assay type: cell-based; settings: Klebsiella aerogenes, in vitro, read-out: Minimum Inhibitory Concentration
Source text: as §1

Shigella sp. = assay: Standard Gradient-Plate method, MIC vs. Shigella sp.; assay type: cell-based; settings: in vitro, read-out: Minimum Inhibitory Concentration
Source text: as §1

Serratia marcescens = assay: Standard Gradient-Plate method, MIC vs. Serratia marcescens; assay type: cell-based; settings: in vitro, read-out: Minimum Inhibitory Concentration
Source text: as §1

Salmonella heidelberg = assay: Standard Gradient-Plate method, MIC vs. Salmonella heidelberg; assay type: cell-based; settings: Salmonella enterica, in vitro, read-out: Minimum Inhibitory Concentration
Source text: as §1

Pseudomonas aeruginosa = assay: Standard Gradient-Plate method, MIC vs. Pseudomonas aeruginosa; assay type: cell-based; settings: in vitro, read-out: Minimum Inhibitory Concentration
Source text: as §1

Row | SMILES | pKa (Electrometric titration; read-out: pKa) | MIC (Escherichia coli) [µg/mL] | MIC (Klebsiella pneumoniae) [µg/mL] | MIC (Aerobacter aerogenes) [µg/mL] | MIC (Shigella sp.) [µg/mL] | MIC (Serratia marcescens) [µg/mL] | MIC (Salmonella heidelberg) [µg/mL] | MIC (Pseudomonas aeruginosa) [µg/mL] | pKa (Electrometric titration; second of two pKa values, read-out: pKa (second value))
1 | O=C(Cc1cccs1)NC1C(=O)N2C(C(=O)O)=C(OS(=O)(=O)c3ccc(F)cc3)CS[C@H]12 (stereo partly shown) [Compound 5, 7-[2-(2-thienyl)acetamido]-3-(4-fluorobenzenesulfonyloxy)-3-cephem-4-carboxylic acid] | 4.25 | 24 (≈ 48.1 µM) | 16.3 (≈ 32.7 µM) | 12 (≈ 24.1 µM) | 16.5 (≈ 33.1 µM) | > 200 | 13.5 (≈ 27.1 µM) | > 200 | 
2 | CS(=O)(=O)OC1=C(C(=O)O)N2C(=O)C(NC(=O)[C@H](N)c3ccccc3)C2SC1 (stereo partly drawn) [Compound 6, 7-(D-phenylglycylamido)-3-methylsulfonyloxy-3-cephem-4-carboxylic acid] | 3.6 | 19.5 (≈ 45.6 µM) | 5.5 (≈ 12.9 µM) | 8.8 (≈ 20.6 µM) | 13.6 (≈ 31.8 µM) | 100 (≈ 234 µM) | 7 (≈ 16.4 µM) | > 200 | 6.75
3 | CCS(=O)(=O)OC1=C(C(=O)O)N2C(=O)C(NC(=O)Cc3cccs3)[C@H]2SC1 (stereo partly shown) [Compound 2, 7-[2-(2-thienyl)acetamido]-3-ethylsulfonyloxy-3-cephem-4-carboxylic acid] | 4.15 | 13.1 (≈ 30.3 µM) | 7 (≈ 16.2 µM) | 3.5 (≈ 8.09 µM) | 7 (≈ 16.2 µM) | 120 (≈ 277 µM) | 4 (≈ 9.25 µM) | > 200 | 
4 | Cc1ccc(S(=O)(=O)OC2=C(C(=O)O)N3C(=O)C(NC(=O)Cc4cccs4)[C@H]3SC2)cc1 (stereo partly shown) [Compound 4, 7-[2-(2-thienyl)acetamido]-3-(p-toluenesulfonyloxy)-3-cephem-4-carboxylic acid] | 4.4 | 16.3 (≈ 33 µM) | 9.3 (≈ 18.8 µM) | 16.5 (≈ 33.4 µM) | 19.5 (≈ 39.4 µM) | > 200 | 125 (≈ 253 µM) | > 200 | 
5 | CCCCS(=O)(=O)OC1=C(C(=O)O)N2C(=O)C(NC(=O)Cc3cccs3)[C@H]2SC1 (stereo partly shown) [Compound 3, 7-[2-(2-thienyl)acetamido]-3-n-butylsulfonyloxy-3-cephem-4-carboxylic acid] | 4.75 | 8.8 (≈ 19.1 µM) | 5.5 (≈ 11.9 µM) | 6 (≈ 13 µM) | 6.5 (≈ 14.1 µM) | 180 (≈ 391 µM) | 6 (≈ 13 µM) | > 200 | 
6 | CS(=O)(=O)OC1=C(C(=O)O)N2C(=O)C(NC(=O)Cc3cccs3)[C@H]2SC1 (stereo partly shown) [Compound 1, 7-[2-(2-thienyl)acetamido]-3-methylsulfonyloxy-3-cephem-4-carboxylic acid] | 3.9 | 11 (≈ 26.3 µM) | 6.5 (≈ 15.5 µM) | 3.5 (≈ 8.36 µM) | 10.7 (≈ 25.6 µM) | 110 (≈ 263 µM) | 2 (≈ 4.78 µM) | > 200 | 
